From US7795290B2 (Genentech, Inc., priority 2004, dated 2010)

target: T1, AKT1 (Homo sapiens, UniProt P31749); test: HTS ATP-utilizing enzyme assay, off-chip mobility-shift (Caliper HTS 250); type: biochemical; details: kinase named = inhibitory activity/selectivity; test compound 10 μM; active = greater than three-sigma from mean
T1 construct: purchased Upstate 14-276
Text: The following procedures describe the reagent and plate preparation for a HTS of an ATP-utilizing enzyme, such as a protein kinase, run in an off-chip mobility-shift assay format. The following provides an HTS protocol for running a protein kinase HTS screen on a Caliper HTS 250 microfluidics system. The following parameters are dependent on the protein kinase used and can be determined by one skilled in the art as part of a typical assay development process. For example, the peptide substrate used can be identified from the current literature, by screening a peptide library of potential protein kinase substrates, or by other applicable means accepted in the field.
The following table provides typical screen assay parameters appropriate for a Caliper HTS 250 microfluidics system used to assay AKT1. Parameters used to assay other protein kinases can be determined by one skilled in the art.
Assays to determine the kinase inhibitory activity of chemical entities of the present disclosure were performed using a Caliper HTS 250 microfluidics device, Greiner U-bottom assay plates, a Multidrop for transfer of reagents, and Biomek FX (AMNCBM03) software. Initially, 2.4 μL of a 1 mM solution of a test compound in 100% DMSO was added to a well of the Greiner U-bottom plate. A single Greiner U-bottom plate having 24×16 wells could include multiple test compounds. […] Using the Biomek FX, 10 μL of 0.5 M EDTA was added by the span-8 to wells, indicated as 100% Control and 2.4 μL of 100% DMSO was added by the span-8 to wells, indicated as 0% Control. […] The total reaction volume in each well was 25 μL, and the concentration of the test compound was 10 μM. The assay plate was incubated for 2.5 hrs at 20° C. to 22° C. […] The inhibition of the ATP-utilizing enzyme, such as a particular protein kinase, was determined by measuring the ratio of the peptide substrate to phosphorylated product for each well of the assay plate using the Caliper HTS 250 system.
The use of three-sigma statistical limits represents a conservative method for declaring potential hits among targets. The three-sigma activity, as well as the mean population activity, can be different for each target enzyme.
Each chemical entity listed in Table 2 was tested for protein kinase inhibitory activity according to the biological assays and definitions of protein kinase inhibitory activity as described herein.

T1 sequence (P31749 whole entry): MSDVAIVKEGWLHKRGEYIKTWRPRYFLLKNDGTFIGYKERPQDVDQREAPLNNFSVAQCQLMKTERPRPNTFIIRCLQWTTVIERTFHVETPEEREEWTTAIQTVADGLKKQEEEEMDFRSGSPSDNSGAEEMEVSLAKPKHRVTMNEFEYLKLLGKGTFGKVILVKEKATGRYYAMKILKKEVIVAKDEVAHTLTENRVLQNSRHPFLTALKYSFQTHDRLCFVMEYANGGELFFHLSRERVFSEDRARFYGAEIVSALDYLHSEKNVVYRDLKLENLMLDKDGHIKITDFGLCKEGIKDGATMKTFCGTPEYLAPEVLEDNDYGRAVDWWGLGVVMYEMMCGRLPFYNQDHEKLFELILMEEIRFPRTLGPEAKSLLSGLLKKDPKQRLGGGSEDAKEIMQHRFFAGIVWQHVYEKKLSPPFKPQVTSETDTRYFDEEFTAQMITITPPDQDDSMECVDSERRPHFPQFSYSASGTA

Compound	Activity
CC(=O)NC1CCN(CCCN(C(=O)c2cccs2)c2nc(-c3cc4ccccc4o3)cs2)C1 (stereo not drawn) [N-(3-(3-acetamidopyrrolidin-1-yl)propyl)-N-(4-(benzofuran-2-yl)thiazol-2-yl)thiophene-2-carboxamide]	AKT1
CC(=O)NCCCC(=O)NCCCN(C(=O)c1cccs1)c1nc(-c2cc3ccccc3o2)cs1 [N-(3-(4-acetamidobutanamido)propyl)-N-(4-(benzofuran-2-yl)thiazol-2-yl)thiophene-2-carboxamide]	AKT1
CC(=O)N1CCN(CCCN(C(=O)c2cccs2)c2nc(-c3cc4ccccc4o3)cs2)CC1 [N-(3-(4-acetylpiperazin-1-yl)propyl)-N-(4-(benzofuran-2-yl)thiazol-2-yl)thiophene-2-carboxamide]	AKT1
CN1CCN(CCCN(C(=O)c2ccco2)c2nc(-c3cc(-c4ccccc4)no3)cs2)CC1 [N-(3-(4-methylpiperazin-1-yl)propyl)-N-(4-(3-phenylisoxazol-5-yl)thiazol-2-yl)furan-2-carboxamide]	AKT1
CN1CCN(CCCN(C(=O)c2ccccc2)c2nc(-c3ccccc3)cs2)CC1 [N-(3-(4-methylpiperazin-1-yl)propyl)-N-(4-phenylthiazol-2-yl)benzamide]	AKT1
O=C(CCN(C(=O)c1cccs1)c1nc(-c2cc3ccccc3o2)cs1)NCC1COCCO1 (stereo not drawn) [N-(3-((1,4-dioxan-2-yl)methylamino)-3-oxopropyl)-N-(4-(benzofuran-2-yl)thiazol-2-yl)thiophene-2-carboxamide]	AKT1
O=C(NCCCN(C(=O)c1cccs1)c1nc(-c2cc3ccccc3o2)cs1)c1ccncc1 [N-(3-(N-(4-(benzofuran-2-yl)thiazol-2-yl)thiophene-2-carboxamido)propyl)isonicotinamide]	AKT1
COc1ccc(OC)c(-c2csc(N(CCCN3CCCCCC3)C(=O)c3ccccc3)n2)c1 [N-(3-(azepan-1-yl)propyl)-N-(4-(2,5-dimethoxyphenyl)thiazol-2-yl)benzamide]	AKT1
COc1ccc(OC)c(-c2csc(N(CCCN3CCCCCC3)C(=O)c3ccco3)n2)c1 [N-(3-(azepan-1-yl)propyl)-N-(4-(2,5-dimethoxyphenyl)thiazol-2-yl)furan-2-carboxamide]	AKT1
COc1ccc(-c2csc(N(CCCN3CCCCCC3)C(=O)c3ccco3)n2)cc1 [N-(3-(azepan-1-yl)propyl)-N-(4-(4-methoxyphenyl)thiazol-2-yl)furan-2-carboxamide]	AKT1
O=C(c1ccccc1)N(CCCN1CCCCCC1)c1nc(-c2ccccc2)cs1 [N-(3-(azepan-1-yl)propyl)-N-(4-phenylthiazol-2-yl)benzamide]	AKT1
O=C(c1ccco1)N(CCCN1CCCCCC1)c1nc(-c2ccccc2)cs1 [N-(3-(azepan-1-yl)propyl)-N-(4-phenylthiazol-2-yl)furan-2-carboxamide]	AKT1
CCN(CC)CCCN(C(=O)c1ccco1)c1nc(-c2cc(OC)ccc2OC)cs1 [N-(3-(diethylamino)propyl)-N-(4-(2,5-dimethoxyphenyl)thiazol-2-yl)furan-2-carboxamide]	AKT1
CCN(CC)CCCN(C(=O)c1cccs1)c1nc(-c2cc(OC)ccc2OC)cs1 [N-(3-(diethylamino)propyl)-N-(4-(2,5-dimethoxyphenyl)thiazol-2-yl)thiophene-2-carboxamide]	AKT1
CCN(CC)CCCN(C(=O)c1ccco1)c1nc(-c2ccccc2)cs1 [N-(3-(diethylamino)propyl)-N-(4-phenylthiazol-2-yl)furan-2-carboxamide]	AKT1
CCN(CC)CCCN(C(=O)c1cccs1)c1nc(-c2ccccc2)cs1 [N-(3-(diethylamino)propyl)-N-(4-phenylthiazol-2-yl)thiophene-2-carboxamide]	AKT1
CS(=O)(=O)Nc1cccc(NC(=O)c2csc(N(CCCN3CCOCC3)C(=O)c3cccs3)n2)c1 [N-(3-(methylsulfonamido)phenyl)-2-(N-(3-morpholinopropyl)thiophene-2-carboxamido)thiazole-4-carboxamide]	AKT1

Now from value to compound:

Activity	Compound
AKT1	O=C1CCCN1CCCN(C(=O)c1cccs1)c1nc(-c2cc(-c3ccccc3)no2)cs1 [N-(3-(2-oxopyrrolidin-1-yl)propyl)-N-(4-(3-phenylisoxazol-5-yl)thiazol-2-yl)thiophene-2-carboxamide]
AKT1	CC(=O)NC1CCN(C(=O)CCN(C(=O)c2cccs2)c2nc(-c3cc4ccccc4o3)cs2)C1 (stereo not drawn) [N-(3-(3-acetamidopyrrolidin-1-yl)-3-oxopropyl)-N-(4-(benzofuran-2-yl)thiazol-2-yl)thiophene-2-carboxamide]
AKT1	CN1CCN(CCCN(C(=O)c2ccco2)c2nc(-c3ccccc3)cs2)CC1 [N-(3-(4-methylpiperazin-1-yl)propyl)-N-(4-phenylthiazol-2-yl)furan-2-carboxamidevv]
AKT1	Cc1cc(C(=O)NCCCN(C(=O)c2cccs2)c2nc(-c3cc4ccccc4o3)cs2)nn1C [N-(3-(N-(4-(benzofuran-2-yl)thiazol-2-yl)thiophene-2-carboxamido)propyl)-1,5-dimethyl-1H-pyrazole-3-carboxamide]
AKT1	COc1ccc(OC)c(-c2csc(N(CCCN3CCCCCC3)C(=O)c3cccs3)n2)c1 [N-(3-(azepan-1-yl)propyl)-N-(4-(2,5-dimethoxyphenyl)thiazol-2-yl)thiophene-2-carboxamide]
AKT1	COc1ccc(-c2csc(N(CCCN3CCCCCC3)C(=O)c3ccccc3)n2)cc1 [N-(3-(azepan-1-yl)propyl)-N-(4-(4-methoxyphenyl)thiazol-2-yl)benzamide]
AKT1	COc1ccc(-c2csc(N(CCCN3CCCCCC3)C(=O)c3cccs3)n2)cc1 [N-(3-(azepan-1-yl)propyl)-N-(4-(4-methoxyphenyl)thiazol-2-yl)thiophene-2-carboxamide]
AKT1	O=C(c1cccs1)N(CCCN1CCCCCC1)c1nc(-c2ccccc2)cs1 [N-(3-(azepan-1-yl)propyl)-N-(4-phenylthiazol-2-yl)thiophene-2-carboxamide]
AKT1	CCN(CC)CCCN(C(=O)c1ccccc1)c1nc(-c2cc(OC)ccc2OC)cs1 [N-(3-(diethylamino)propyl)-N-(4-(2,5-dimethoxyphenyl)thiazol-2-yl)benzamide]
AKT1	CCN(CC)CCCN(C(=O)c1cccs1)c1nc(-c2ccc(OC)c(OC)c2)cs1 [N-(3-(diethylamino)propyl)-N-(4-(3,4-dimethoxyphenyl)thiazol-2-yl)thiophene-2-carboxamide]
AKT1	CCN(CC)CCCN(C(=O)c1ccccc1)c1nc(-c2ccc(OC)cc2)cs1 [N-(3-(diethylamino)propyl)-N-(4-(4-methoxyphenyl)thiazol-2-yl)benzamide]
AKT1	CC(=O)NCCCN(C(=O)c1cccs1)c1nc(-c2cc3ccccc3o2)cs1 [N-(3-acetamidopropyl)-N-(4-(benzofuran-2-yl)thiazol-2-yl)thiophene-2-carboxamide]
AKT1	NC(=O)c1cccc(NC(=O)c2csc(N(CCCN3CCOCC3)C(=O)c3cccs3)n2)c1 [N-(3-carbamoylphenyl)-2-(N-(3-morpholinopropyl)thiophene-2-carboxamido)thiazole-4-carboxamide]
